The inhibition is the change of the read-out against control, counted positive when it falls.

Non-standard residues stand in square brackets, D forms with d. Residues, ends and D or L forms follow the SMILES beside them. *: point of attachment. d(aThr) = C[C@@H](O)[C@@H](N)C(=O)O; Dhb = C/C=C(\N)C(=O)O; Propionyl = CCC(=O)*

From ChEMBL document CHEMBL4257554, “On the inhibition of capsaicin response in dorsal root ganglion neurons by nobilamide B and analogues: a structure-activity relationship study” (Medchemcomm, 2018) come the findings set out here.

The target of the experiment is Transient receptor potential cation channel subfamily V member 1 (Mus musculus) (UniProt Q704Y3). Nature of the experiment: Antagonist activity at TRPV1 channel in mouse DRG neurons assessed as inhibition of capsaicin-induced calcium accumulation at 300 uM incubated for 6 mins by Fura-2-AM dye based fluorescence assay relative to control.
Sequence of Transient receptor potential cation channel subfamily V member 1 (Mus musculus) (Q704Y3 whole entry): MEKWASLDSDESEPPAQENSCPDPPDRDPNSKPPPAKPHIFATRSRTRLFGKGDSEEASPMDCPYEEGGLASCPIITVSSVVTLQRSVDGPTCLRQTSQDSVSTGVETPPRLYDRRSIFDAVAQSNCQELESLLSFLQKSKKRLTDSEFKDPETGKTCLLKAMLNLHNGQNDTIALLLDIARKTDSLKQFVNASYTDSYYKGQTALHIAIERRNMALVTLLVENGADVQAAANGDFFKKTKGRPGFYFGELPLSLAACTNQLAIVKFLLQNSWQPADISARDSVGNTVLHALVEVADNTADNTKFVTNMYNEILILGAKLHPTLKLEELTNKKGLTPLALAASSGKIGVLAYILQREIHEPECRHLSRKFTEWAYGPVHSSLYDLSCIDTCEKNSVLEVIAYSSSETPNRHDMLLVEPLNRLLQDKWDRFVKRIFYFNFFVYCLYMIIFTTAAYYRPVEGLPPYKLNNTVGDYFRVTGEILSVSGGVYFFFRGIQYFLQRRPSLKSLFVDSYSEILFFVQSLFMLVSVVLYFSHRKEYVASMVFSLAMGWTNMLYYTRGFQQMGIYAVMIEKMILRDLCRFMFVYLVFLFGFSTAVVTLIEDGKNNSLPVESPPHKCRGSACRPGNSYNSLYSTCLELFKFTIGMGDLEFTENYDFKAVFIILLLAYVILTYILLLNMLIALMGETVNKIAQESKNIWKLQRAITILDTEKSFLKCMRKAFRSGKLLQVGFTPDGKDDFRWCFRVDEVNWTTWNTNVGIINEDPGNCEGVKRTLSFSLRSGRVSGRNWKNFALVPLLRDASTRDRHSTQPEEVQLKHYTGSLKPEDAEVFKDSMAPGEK
For `C/C=C(\NC(=O)[C@H](C)NC(=O)[C@@H](NC(=O)[C@H](NC(=O)[C@H](C)NC(=O)[C@@H](CC(C)C)NC(=O)[C@@H](Cc1ccccc1)NC(=O)CC)[C@@H](C)O)C(C)C)C(=O)O`, the inhibition came to 23.5%.
Turning to `C/C=C(\NC(=O)[C@H](C)NC(=O)[C@@H](NC(=O)[C@H](NC(=O)[C@H](Cc1ccccc1)NC(=O)[C@H](C)NC(=O)[C@@H](Cc1ccccc1)NC(=O)CC)[C@@H](C)O)C(C)C)C(=O)O`, the inhibition is 3.27%.
Turning to `C/C=C(\NC(=O)[C@H](C)NC(=O)[C@@H](NC(=O)[C@H](NC(=O)[C@H](Cc1ccccc1)NC(=O)[C@@H](CC(C)C)NC(=O)[C@@H](Cc1ccccc1)NC(=O)CC)[C@@H](C)O)C(C)C)C(=O)O` (Propionyl-[dF][dL]F[d(aThr)]VA[Dhb]-OH), the inhibition was 33.6%.
Regarding `CCC(=O)N[C@H](Cc1ccccc1)C(=O)N[C@H](CC(C)C)C(=O)N[C@@H](Cc1ccccc1)C(=O)N[C@@H](C(=O)N[C@H](C(=O)N[C@@H](C)C(=O)N[C@@H](C)C(=O)O)C(C)C)[C@@H](C)O`, the inhibition turned out to be 35.6%.
Turning to `C/C=C(\NC(=O)[C@H](C)NC(=O)[C@@H](NC(=O)[C@H](NC(=O)[C@H](Cc1ccccc1)NC(=O)[C@@H](CC(C)C)NC(=O)[C@H](C)NC(=O)CC)[C@@H](C)O)C(C)C)C(=O)O`, the inhibition is 6.47%.
For `C/C=C(\NC(=O)[C@H](C)NC(=O)[C@H](C)NC(=O)[C@H](NC(=O)[C@H](Cc1ccccc1)NC(=O)[C@@H](CC(C)C)NC(=O)[C@@H](Cc1ccccc1)NC(=O)CC)[C@@H](C)O)C(=O)O`, the inhibition amounted to 27.8%.
Next, `C/C=C(\NC(=O)[C@H](C)NC(=O)[C@@H](NC(=O)[C@H](C)NC(=O)[C@H](Cc1ccccc1)NC(=O)[C@@H](CC(C)C)NC(=O)[C@@H](Cc1ccccc1)NC(=O)CC)C(C)C)C(=O)O`: 5.38%.
